According to paper PMC7400135, “3-(5-Nitrofuran-2-yl)prop-2-en-1-one Derivatives, with Potent Antituberculosis Activity, Inhibit A Novel Therapeutic Target, Arylamine N-acetyltransferase, in Mycobacteria” (Antibiotics, 2020):
≈ marks a conversion by molar mass, not a printed value. Like-named read-outs stand apart in the source and are kept apart here. Marks after values point to notes of the source that are not given here.

What was measured:
E. coli (NCTC 10538) = assay: HT-SPOTi growth inhibition (MIC), E. coli; assay type: cell-based, Escherichia coli; conditions: 37 °C 16 h; for MIC: Escherichia coli, NCTC10538, LB agar; for MIC Escherichia coli: LB agar
[1] = test system: M. bovis BCG (ATCC 35734); assay: microbe, parasite or virus in culture; assay type: cell-based; conditions: Mycobacterium tuberculosis variant bovis BCG, 336 h, read-out: MIC Mycobacterium bovis BCG
[2] = target: recombinant Mycobacterium marinum N-acetyltransferase (MMNAT) (Mycobacterium marinum, UniProt B2HIZ6); assay: Inhibition of recombinant MMNAT (DTNB assay); assay type: biochemical
Chain of recombinant Mycobacterium marinum N-acetyltransferase (MMNAT) (B2HIZ6 entry or part of it): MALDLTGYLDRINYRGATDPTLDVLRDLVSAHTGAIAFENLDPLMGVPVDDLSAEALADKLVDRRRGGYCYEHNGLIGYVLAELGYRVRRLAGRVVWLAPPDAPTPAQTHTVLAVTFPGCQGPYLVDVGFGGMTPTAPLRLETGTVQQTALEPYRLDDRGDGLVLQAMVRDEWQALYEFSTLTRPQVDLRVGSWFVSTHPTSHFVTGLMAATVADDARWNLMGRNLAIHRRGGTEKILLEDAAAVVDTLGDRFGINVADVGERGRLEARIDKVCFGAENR

[3] = test system: human monocyte THP-1 cell line; conditions: resazurin assay, 48 h incubation
[4] = test system: murine macrophage RAW 264.7 cell line; conditions: resazurin assay, 48 h incubation
S. aureus (ATCC 25923) = assay: HT-SPOTi growth inhibition (MIC), S. aureus; assay type: cell-based, Staphylococcus aureus; conditions: 37 °C 16 h; for MIC Staphylococcus aureus: LB agar; for MIC: Staphylococcus aureus, ATCC25923, LB agar
[5] = test system: M. bovis BCG infected in THP-1 macrophages; assay: microbe, parasite or virus in culture; assay type: cell-based, Mycobacterium bovis BCG; conditions: for ex vivo MIC as multiple of MIC: M. bovis BCG in THP-1 macrophages; for MIC: Mycobacterium tuberculosis variant bovis BCG, BCG, 48 h, read-out: ex vivo MIC
[6] = test system: M. tuberculosis H37Rv (ATCC 25618); assay: HT-SPOTi growth inhibition (MIC), M. tuberculosis H37Rv; assay type: cell-based; conditions: Mycobacterium tuberculosis; HT-SPOTi agar assay; read-out: MIC Mtb H37Rv
M. aurum (NCTC 10437) [7] = assay: HT-SPOTi growth inhibition (MIC), M. aurum; assay type: cell-based; conditions: Mycolicibacterium aurum, NCTC10437, 120 h; HT-SPOTi agar assay, 35 °C 5 days; read-out: MIC Mycobacterium aurum
[8] = test system: M. bovis BCG (ATCC 35734); conditions: ref Gupta and Bhakta, 2012; cited from earlier work
M. aurum (NCTC 10437) [9] = test system: M. aurum (NCTC 10437); set-up: method as in Gupta and Bhakta, 2012; conditions: ref Gupta and Bhakta, 2012; cited from earlier work
[10] = hydralazine 450 µM, acetyl CoA 400 µM, extrapolated from linear regression, read-out: IC50 MMNAT
[11] = value in brackets, same IC50 in mg/L, read-out: IC50 MMNAT

SMILES	MIC (E. coli (NCTC 10538)) [mg/L]	MIC Escherichia coli (E. coli (NCTC 10538))	MIC [1] [mg/L]	IC50 [2, 10] [µM]	IC50 [2, 11] [µM]	GIC THP-1 Cell Line [3]	GIC RAW 264.7 Cell Line [4]	MIC Staphylococcus aureus (S. aureus (ATCC 25923))	MIC (S. aureus (ATCC 25923)) [mg/L]	ex vivo MIC as multiple of MIC [5] [× MIC]	MIC [5] [mg/L]	MIC [6] [mg/L]	MIC (M. aurum (NCTC 10437) [7]) [mg/L]	MIC Mycobacterium bovis BCG [8]	IC50 [2] [µM]	MIC Mycobacterium aurum (M. aurum (NCTC 10437) [9])
O=C(/C=C/c1ccc([N+](=O)[O-])o1)c1ccc(N2CCOCC2)cc1 [Compound 1]	> 500	inactive	0.06 (≈ 0.183 µM)	0.207	0.207	62.5 mg/L	125 mg/L	inactive	> 500	4	0.24 (≈ 0.731 µM)	0.244 (≈ 0.743 µM)	> 500	–	–	–
O=[N+]([O-])c1cn2c(n1)OC[C@@H](OCc1ccc(OC(F)(F)F)cc1)C2 [Pretomanid]	–	–	–	> 1	–	–	–	–	–	–	–	0.061 (≈ 0.17 µM)	–	–	–	–
O=C(/C=C/c1ccc([N+](=O)[O-])o1)c1ccc(N2CCCCC2)cc1 [Compound 2]	> 500	inactive	0.0075 (≈ 0.023 µM)	0.269	0.27	62.5 mg/L	125 mg/L	inactive	> 500	–	–	0.031 (≈ 0.095 µM)	> 500	–	–	–
CO[C@H]1/C=C/O[C@@]2(C)Oc3c(C)c(O)c4c(O)c(c(/C=N/N5CCN(C)CC5)c(O)c4c3C2=O)NC(=O)/C(C)=C\C=C\[C@H](C)[C@H](O)[C@@H](C)[C@@H](O)[C@@H](C)[C@H](OC(C)=O)[C@@H]1C [Rifampicin]	–	–	–	–	–	–	–	–	–	–	–	0.125 (≈ 0.152 µM)	–	0.50 ^# mg/L	> 1	0.40 ^# mg/L
CN(Cc1cnc2nc(N)nc(N)c2n1)c1ccc(C(=O)N[C@@H](CCC(=O)O)C(=O)O)cc1 [Methotrexate, reference compound]	–	–	500 (≈ 1100 µM)	–	–	0.975 mg/L	0.122 mg/L	–	–	–	–	> 500	–	–	–	–
NNC(=O)c1ccncc1 [Isoniazid, reference compound]	–	–	0.625 (≈ 4.56 µM)	> 1	–	NA^a (not active until 500 mg/L concentration)	NA^a (not active until 500 mg/L concentration)	–	–	2	1.25 (≈ 9.11 µM)	0.8 (≈ 5.83 µM)	1.25 (≈ 9.11 µM)	–	–	–
CC[C@@H](CO)NCCN[C@@H](CC)CO [Ethambutol]	–	–	–	> 1	–	–	–	–	–	–	–	2 (≈ 9.79 µM)	–	2.00 ^# mg/L	–	0.10 ^# mg/L
CC1(C)S[C@@H]2[C@H](NC(=O)[C@H](N)c3ccccc3)C(=O)N2[C@H]1C(=O)O [Ampicillin, reference compound]	2 (≈ 5.72 µM)	–	> 500	–	–	–	–	–	0.125 (≈ 0.358 µM)	–	–	–	–	–	–	–
CCN(CC)c1ccc(C(=O)/C=C/c2ccc([N+](=O)[O-])o2)cc1 [Compound 3]	250 (≈ 795 µM)	–	0.03 (≈ 0.0954 µM)	0.134	0.134	15.6 mg/L	31.25 mg/L	–	62.5 (≈ 199 µM)	–	–	0.488 (≈ 1.55 µM)	> 500	–	–	–
